Activity calls are given as the source filed them. The rule behind the calls is not given here.
Experiments:
[1] = target: Melanocyte-stimulating hormone receptor (Mus musculus, UniProt Q01727); assay: Agonist activity at mouse melanocortin 1 receptor expressed in HEK293 cells by AlphaScreen cAMP assay; assay type: functional, cell-based
Melanocortin receptor 4 = Melanocortin receptor 4 (Mus musculus, UniProt P56450); assay: Agonist activity at mouse melanocortin 4 receptor expressed in HEK293 cells by AlphaScreen cAMP assay; assay type: functional, cell-based
Sequence of Melanocortin receptor 4 (P56450 whole entry): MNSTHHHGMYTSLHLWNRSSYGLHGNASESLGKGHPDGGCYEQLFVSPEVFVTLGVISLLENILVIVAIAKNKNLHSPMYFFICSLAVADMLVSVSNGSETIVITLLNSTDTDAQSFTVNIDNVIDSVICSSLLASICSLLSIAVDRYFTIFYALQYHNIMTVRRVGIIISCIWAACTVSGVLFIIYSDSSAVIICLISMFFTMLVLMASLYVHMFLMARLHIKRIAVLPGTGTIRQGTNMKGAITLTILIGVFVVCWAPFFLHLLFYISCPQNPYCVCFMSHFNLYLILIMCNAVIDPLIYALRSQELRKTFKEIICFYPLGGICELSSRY

[2] = target: Melanocortin receptor 3 (Mus musculus) (UniProt P33033); assay: Agonist activity at mouse melanocortin 3 receptor expressed in HEK293 cells at 100 uM by AlphaScreen cAMP assay; assay type: functional, cell-based
Sequence of Melanocortin receptor 3 (Mus musculus) (P33033 whole entry): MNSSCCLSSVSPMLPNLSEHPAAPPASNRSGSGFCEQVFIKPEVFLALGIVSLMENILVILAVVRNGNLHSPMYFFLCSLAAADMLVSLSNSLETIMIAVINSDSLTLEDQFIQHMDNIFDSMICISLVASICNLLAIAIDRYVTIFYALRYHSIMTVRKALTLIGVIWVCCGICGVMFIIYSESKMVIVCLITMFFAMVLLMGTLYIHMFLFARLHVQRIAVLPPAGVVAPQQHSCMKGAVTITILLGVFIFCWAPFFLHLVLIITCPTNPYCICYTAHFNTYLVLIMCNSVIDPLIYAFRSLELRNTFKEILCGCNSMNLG

[3] = target: Melanocortin receptor 5 (Mus musculus) (UniProt P41149); assay: Agonist activity at mouse melanocortin 5 receptor expressed in HEK293 cells at 100 uM by AlphaScreen cAMP assay; assay type: functional, cell-based
Sequence of Melanocortin receptor 5 (Mus musculus) (P41149 whole entry): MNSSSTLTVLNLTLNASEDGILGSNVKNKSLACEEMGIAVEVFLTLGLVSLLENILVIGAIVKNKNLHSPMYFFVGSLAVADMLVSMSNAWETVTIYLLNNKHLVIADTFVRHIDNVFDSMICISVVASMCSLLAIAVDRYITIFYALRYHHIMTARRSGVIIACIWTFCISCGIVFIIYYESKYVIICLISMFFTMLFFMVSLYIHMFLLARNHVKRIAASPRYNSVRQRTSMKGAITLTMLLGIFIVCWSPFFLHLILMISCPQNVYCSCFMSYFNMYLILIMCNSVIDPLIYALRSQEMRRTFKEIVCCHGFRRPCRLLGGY

[4] = target: Melanocortin receptor 3 (Mus musculus) (UniProt P33033); assay: Antagonist activity at mouse melanocortin 3 receptor expressed in HEK293 cells using NDP-MSH as agonist by Schild analysis; assay type: cell-based
[5] = target: Melanocortin receptor 4 (Mus musculus) (UniProt P56450); assay: Antagonist activity at mouse melanocortin 4 receptor expressed in HEK293 cells using NDP-MSH as agonist by Schild analysis; assay type: cell-based
Sequence of Melanocortin receptor 4 (Mus musculus) (P56450 whole entry): as the sequence (P56450 whole entry) above

Sequence of Melanocyte-stimulating hormone receptor (Q01727 whole entry): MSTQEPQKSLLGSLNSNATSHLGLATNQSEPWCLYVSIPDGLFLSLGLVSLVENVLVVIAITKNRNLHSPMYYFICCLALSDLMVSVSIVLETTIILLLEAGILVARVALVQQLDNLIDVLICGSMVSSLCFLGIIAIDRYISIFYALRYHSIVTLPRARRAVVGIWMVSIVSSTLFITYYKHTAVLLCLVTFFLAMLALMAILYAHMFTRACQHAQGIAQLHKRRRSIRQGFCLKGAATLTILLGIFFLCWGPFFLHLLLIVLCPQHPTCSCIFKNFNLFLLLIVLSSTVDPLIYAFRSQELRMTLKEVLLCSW

## Ac-EIAEVLARWTGIPV-NH2
[1]
  EC50: 41 µM
Melanocortin receptor 4
  EC50: > 100 µM
[2]
  Activity: 30%
[3]
  Activity: 50%
[4]
  inhibition: inactive
[5]
  inhibition: inactive
